Tests used:
coronaviruses [1] = test: Killing of coronaviruses on treated surfaces versus a control surface; settings: in 2 hours
Method: 88% more coronaviruses were killed on the treated surfaces than on a control surface, also in 2 hours.

coronaviruses [2] = test: EN 14476 (Liquid Disinfectant Test); settings: in 2 hours

Substance: Paramolybdotungstate [Paramolybdotungstate Mo:W 1:1]
- more coronaviruses killed on treated surfaces than on a control surface (coronaviruses [1]): 88%
- log reduction of coronaviruses (coronaviruses [2]): 4 log
